Experimental data published in article PMC11514837 (Toxicological Sciences, 2024).
Like-named read-outs stand apart in the source and are kept apart here.

Legend:
zebrafish Ahr2 = target: T1, zebrafish Ahr2 (Danio rerio, UniProt Q9YGV3); format: cell-based; details: exposures up to 30 μM
T1 sequence (Q9YGV3 1-1027): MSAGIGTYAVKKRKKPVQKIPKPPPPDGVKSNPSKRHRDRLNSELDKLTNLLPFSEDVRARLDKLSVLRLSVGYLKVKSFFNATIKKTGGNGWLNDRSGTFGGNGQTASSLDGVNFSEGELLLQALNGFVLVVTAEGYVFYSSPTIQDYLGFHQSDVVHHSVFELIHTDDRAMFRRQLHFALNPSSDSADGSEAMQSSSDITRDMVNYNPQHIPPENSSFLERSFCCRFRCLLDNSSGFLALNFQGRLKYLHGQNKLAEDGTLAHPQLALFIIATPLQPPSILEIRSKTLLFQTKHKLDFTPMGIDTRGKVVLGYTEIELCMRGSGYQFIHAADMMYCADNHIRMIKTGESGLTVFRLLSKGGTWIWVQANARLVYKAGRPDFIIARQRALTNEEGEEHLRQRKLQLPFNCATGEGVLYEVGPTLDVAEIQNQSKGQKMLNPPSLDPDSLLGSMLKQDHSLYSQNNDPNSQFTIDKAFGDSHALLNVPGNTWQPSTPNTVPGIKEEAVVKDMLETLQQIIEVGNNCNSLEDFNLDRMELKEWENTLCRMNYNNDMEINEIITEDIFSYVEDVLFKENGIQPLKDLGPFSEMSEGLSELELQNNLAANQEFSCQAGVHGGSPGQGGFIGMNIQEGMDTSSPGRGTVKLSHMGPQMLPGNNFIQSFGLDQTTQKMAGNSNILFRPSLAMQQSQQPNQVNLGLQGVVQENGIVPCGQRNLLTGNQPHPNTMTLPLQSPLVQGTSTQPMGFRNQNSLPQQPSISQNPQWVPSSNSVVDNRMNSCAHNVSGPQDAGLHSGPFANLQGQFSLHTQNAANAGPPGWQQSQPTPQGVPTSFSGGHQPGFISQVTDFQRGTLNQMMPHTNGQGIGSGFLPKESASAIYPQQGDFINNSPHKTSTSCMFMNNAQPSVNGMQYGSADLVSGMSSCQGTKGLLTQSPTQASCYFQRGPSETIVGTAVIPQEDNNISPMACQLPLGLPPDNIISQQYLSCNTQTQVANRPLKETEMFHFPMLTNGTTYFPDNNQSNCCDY

human AHR [1] = target: T2, human AHR (Homo sapiens, UniProt P35869); details: exposures up to 30 μM
T2 sequence (P35869 11-848): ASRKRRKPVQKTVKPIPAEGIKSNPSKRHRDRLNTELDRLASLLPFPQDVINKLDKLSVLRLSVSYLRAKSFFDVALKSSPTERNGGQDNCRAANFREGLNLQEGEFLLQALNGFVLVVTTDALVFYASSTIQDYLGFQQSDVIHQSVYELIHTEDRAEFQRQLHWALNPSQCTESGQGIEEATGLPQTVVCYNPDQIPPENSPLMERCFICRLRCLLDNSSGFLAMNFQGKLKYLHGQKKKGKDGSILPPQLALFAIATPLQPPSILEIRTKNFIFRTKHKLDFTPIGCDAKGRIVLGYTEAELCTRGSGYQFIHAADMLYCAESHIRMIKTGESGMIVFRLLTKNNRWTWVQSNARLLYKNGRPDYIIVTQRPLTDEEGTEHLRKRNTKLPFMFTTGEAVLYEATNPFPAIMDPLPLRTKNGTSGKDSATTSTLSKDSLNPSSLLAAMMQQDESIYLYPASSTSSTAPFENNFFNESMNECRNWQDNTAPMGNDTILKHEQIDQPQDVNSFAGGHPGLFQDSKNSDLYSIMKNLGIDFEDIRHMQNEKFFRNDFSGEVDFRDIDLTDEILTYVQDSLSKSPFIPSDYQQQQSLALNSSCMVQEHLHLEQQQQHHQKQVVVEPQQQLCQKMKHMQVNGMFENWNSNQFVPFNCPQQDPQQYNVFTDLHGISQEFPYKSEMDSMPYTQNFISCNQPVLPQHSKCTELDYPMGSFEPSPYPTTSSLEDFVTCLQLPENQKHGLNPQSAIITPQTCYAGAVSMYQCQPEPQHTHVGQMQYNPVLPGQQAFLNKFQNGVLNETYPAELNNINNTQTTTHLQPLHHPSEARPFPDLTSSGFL

zebrafish embryos [2] = assay: Zebrafish developmental toxicity screening, wild-type fish; format: in vivo, zebrafish (Danio rerio); details: for concentration up to which not toxic in zebrafish: data not shown; for EC80: nominal concentration causing morphologic malformations in 80% of WT zebrafish
cyp1a^osu4 zebrafish = format: in vivo; details: TCDD, cyp1a^osu4 fish, 1 h exposure at 6 to 8 hpf
cyp1a^osu5 zebrafish = format: in vivo; details: TCDD, cyp1a^osu5 fish; unit not given
Cyp1b1^wh4 zebrafish = format: in vivo; details: TCDD
[3] = system: cyp1a^cms-gfp zebrafish (EGFP under cyp1a promotor)
zebrafish embryos [4] = assay: Window of susceptibility developmental toxicity exposures; format: in vivo
[5] = Larval metabolite analysis by LC-IM-MS; details: zebrafish exposed to 26 µM retene
[6] = system: Ahr2 knockout (ahr2^hu3335) fish; details: ref Scott et al. 2011; Wilson et al. 2022; cited from earlier work
[7] = Retene body burden in zebrafish tissue; format: in vivo
Ahr2 = details: ref Billiard et al. 2002; cited from earlier work
human AHR [8] = target: T2, human AHR

## c1ccc2c(c1)cc1ccc3cccc4ccc2c1c34 [Benzo[a]pyrene]
Zebrafish Ahr2
  Ahr2 activation in zebrafish ZF-4 luciferase reporter cells: activator
Human AHR [1]
  AHR activation in human HuH-7 luciferase reporter cells: activator

## c1ccc2c(c1)-c1cccc3c1c-2cc1ccccc13 [Benzo[b]fluoranthene]
Zebrafish embryos [2]
  concentration up to which not toxic in zebrafish: > 100 µM
Zebrafish Ahr2
  Ahr2 activation in zebrafish ZF-4 luciferase reporter cells: direct AHR activators
Human AHR [1]
  AHR activation in human HuH-7 luciferase reporter cells: direct AHR activators

## Clc1cc2c(cc1Cl)Oc1cc(Cl)c(Cl)cc1O2 [TCDD, 2,3,7,8-Tetrachlorodibenzo-p-dioxin]
cyp1a^osu4 zebrafish
  BMC50: 0.41 ± 0.07 nM
cyp1a^osu5 zebrafish
  BMC: 0.56 ± 0.13
Cyp1b1^wh4 zebrafish
  change in toxicity versus 5D fish: no change in toxicity

## c1ccc2cc3c(cc2c1)-c1cccc2cccc-3c12 [Benzo[k]fluoranthene, Benzo(k)fluoranthene]
[3]; cyp1a^cms-gfp fish, retene 26 μM, benzo[k]fluoranthene 8.9 μM
  EGFP expression at 23 hpf / early hours: strong widespread EGFP expression
Zebrafish Ahr2
  Ahr2 activation in zebrafish ZF-4 luciferase reporter cells: direct AHR activators
Human AHR [1]
  AHR activation in human HuH-7 luciferase reporter cells: direct AHR activators

## Cc1cccc2c1ccc1cc(C(C)C)ccc12 [Retene, 1-methyl-7-isopropylphenanthrene]
Zebrafish embryos [4]; exposure window 6 to 48 hpf, screened at 120 hpf
  BMC50: 52 ± 4 µM
Zebrafish embryos [4]; exposure window 48 to 120 hpf
  developmental toxicity response: little response
[5]
  retene metabolites in tissue extracts at 12 and 24 hpf: No retene metabolites were detected
[6]
  Ahr2 dependence of toxicity in developing zebrafish: Ahr2 dependent toxicity
[7]; 30 μM retene from 6 hpf
  increase in body burden from 12 to 24 hpf: greater than 3 fold
  tissue burden at 48 hpf: decreased to near-baseline
[7]; static exposure to 30 μM retene from 6 hpf
  24 hpf body burden: 31 ng/fish
[3]; zebrafish, in vivo
  EGFP expression at 23 hpf / early hours: control-like EGFP expression
Zebrafish Ahr2
  Ahr2 activation in zebrafish ZF-4 luciferase reporter cells: no significant activation
Zebrafish Ahr2; listed as retene
  Ahr2 activation in zebrafish ZF-4 luciferase reporter cells: do not respond
Ahr2
  times less strong at binding Ahr2 than 1-methylphenanthrene: 3 ×
  times less strong at binding Ahr2 than benzo[b]fluoranthene: 73 ×
Human AHR [1]
  AHR activation in human HuH-7 luciferase reporter cells: minimal reporter activity
Human AHR [8]
  effect of supplementation with human liver s9 on reporter activity: did not lead to an increase in reporter activity

## O=C1c2ccccc2C(=O)c2c1ccc1ccccc21 [Benzanthraquinone]
Zebrafish Ahr2
  Ahr2 activation in zebrafish ZF-4 luciferase reporter cells: direct AHR activators
Human AHR [1]
  AHR activation in human HuH-7 luciferase reporter cells: direct AHR activators

## Cc1cccc2c1ccc1ccccc12 [1-methylphenathrene, 1-methylphenanthrene]
Zebrafish embryos [2]
  concentration up to which not toxic in zebrafish: > 100 µM

## c1ccc2c3c(ccc2c1)-c1cccc2cccc-3c12 [Benzo[j]fluoranthene]
Zebrafish embryos [2]
  EC80: could not be determined
Zebrafish Ahr2
  Ahr2 activation in zebrafish ZF-4 luciferase reporter cells: direct AHR activators
Human AHR [1]
  AHR activation in human HuH-7 luciferase reporter cells: direct AHR activators

## O=c1c2ccccc2oc2ccccc12 [Xanthone]
Zebrafish embryos [2]
  EC80: 52 µM
